Experimental data as given in patent publication US9499553B2 (CHUGAI SEIYAKU KABUSHIKI KAISHA, priority 2013, dated 2016).

These compounds were tested against T1, human NaPi-IIb (Homo sapiens, UniProt O95436) (assay: Inhibitory effect on 33PO4 uptake into human NaPi-IIb-expressing CHO cells). Settings: read-out: IC50.
T1 construct: expressed in transfected cells
T1 sequence (O95436 1-690): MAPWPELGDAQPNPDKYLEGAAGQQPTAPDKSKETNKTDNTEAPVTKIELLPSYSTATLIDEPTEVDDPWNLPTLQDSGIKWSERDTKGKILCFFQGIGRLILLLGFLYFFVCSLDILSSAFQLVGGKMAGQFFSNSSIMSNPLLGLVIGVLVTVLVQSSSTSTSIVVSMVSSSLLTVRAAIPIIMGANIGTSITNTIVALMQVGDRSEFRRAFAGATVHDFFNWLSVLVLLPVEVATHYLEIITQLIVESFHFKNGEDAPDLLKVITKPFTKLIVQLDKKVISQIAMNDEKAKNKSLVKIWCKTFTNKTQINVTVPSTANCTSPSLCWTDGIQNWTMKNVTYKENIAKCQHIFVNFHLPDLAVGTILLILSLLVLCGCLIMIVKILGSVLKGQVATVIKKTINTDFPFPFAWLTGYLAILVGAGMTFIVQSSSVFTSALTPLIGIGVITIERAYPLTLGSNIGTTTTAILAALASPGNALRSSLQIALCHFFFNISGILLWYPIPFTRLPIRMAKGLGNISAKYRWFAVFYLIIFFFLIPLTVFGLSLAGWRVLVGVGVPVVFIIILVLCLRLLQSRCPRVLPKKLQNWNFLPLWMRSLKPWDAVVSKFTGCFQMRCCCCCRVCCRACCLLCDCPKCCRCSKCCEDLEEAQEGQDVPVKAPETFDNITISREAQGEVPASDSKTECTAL
Format: cell-based
Procedure, shortened: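 Uptake of ³³PO4 was measured by scintillation counting after ice-cold buffer A washes. Cells were CHO stably expressing human NaPi-IIb, seeded overnight, and exposed to ³³PO4 in buffer A at room temperature.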

COC(=O)c1cc(F)c(CN2C(=O)C(C(=O)Nc3ccc(C(F)(F)F)cc3-c3ccc(C(F)(F)F)nc3)=C(O)[C@@]3(C)CCCN23)c(F)c1 [Example 165, Methyl 4-[[(4aR)-4-Hydroxy-4a-methyl-2-oxo-3-[[4-(trifluoromethyl)-2-[6-(trifluoromethyl)pyridin-3-yl]phenyl]carbamoyl]-6,7-dihydro-5H-pyrrolo[1,2-b]pyridazin-1-yl]methyl]-3,5-difluorobenzoate] and C[C@]12CCCN1N(Cc1c(F)cccc1F)C(=O)C(C(=O)Nc1ccc(C(F)(F)F)cc1-c1ccc(C(F)(F)F)nc1)=C2O [Example 203] are within 1.5-fold of each other in IC50: 1.8 µM for the first, 2 µM for the second.

First: C[C@]12CCCN1N(Cc1ccc(Br)cc1F)C(=O)C(C(=O)Nc1cc(F)c(Br)c(F)c1)=C2O [Example 166, (4aR)—N-(4-Bromo-3,5-difluorophenyl)-1-[(4-bromo-2-fluorophenyl)methyl]-4-hydroxy-4a-methyl-2-oxo-6,7-dihydro-5H-pyrrolo[1,2-b]pyridazine-3-carboxamide]
Second: C[C@]12CCCN1N(Cc1ccc(F)cc1F)C(=O)C(C(=O)Nc1cc(F)c(Br)c(F)c1)=C2O [Example 192]
The IC50 of the first is 1.6-fold lower: 10.5 µM for the first, 16.5 µM for the second. The first is the more potent here.

First: C[C@]12CCCN1N(Cc1cccc(OC(F)F)c1)C(=O)C(C(=O)Nc1ccc(C(F)(F)F)cc1-c1ccc(C(F)(F)F)nc1)=C2O [Example 167]
Second: C[C@]12CCCN1N(Cc1cccc(F)c1)C(=O)C(C(=O)Nc1ccc(C(F)(F)F)cc1-c1ccc(C(F)(F)F)nc1)=C2O [Example 206]
The IC50 of the first is 2.1-fold higher: 4.3 µM for the first, 2 µM for the second. The second is the more potent here.

Going from C[C@]12CCCN1N(Cc1ccccc1Cl)C(=O)C(C(=O)Nc1ccc(C(F)(F)F)cc1-c1ccc(C(F)(F)F)nc1)=C2O [Example 168] to C[C@]12CCCN1N(Cc1ccccc1F)C(=O)C(C(=O)Nc1ccc(C(F)(F)F)cc1-c1ccc(C(F)(F)F)nc1)=C2O [Example 200], the IC50 falls from 2.6 µM to 1.3 µM (2-fold).

C[C@]12CCCN1N(Cc1cccc(Cl)c1)C(=O)C(C(=O)Nc1ccc(C(F)(F)F)cc1-c1ccc(C(F)(F)F)nc1)=C2O [Example 169] and C[C@]12CCCN1N(Cc1ccc(F)c(F)c1)C(=O)C(C(=O)Nc1ccc(C(F)(F)F)cc1-c1ccc(C(F)(F)F)nc1)=C2O [Example 170] are within 1.5-fold of each other in IC50: 2.6 µM for the first, 2.2 µM for the second.

C[C@]12CCCN1N(Cc1cc(F)cc(F)c1)C(=O)C(C(=O)Nc1ccc(C(F)(F)F)cc1-c1ccc(C(F)(F)F)nc1)=C2O [Example 171] and C[C@]12CCCN1N(Cc1cc(F)ccc1F)C(=O)C(C(=O)Nc1ccc(C(F)(F)F)cc1-c1ccc(C(F)(F)F)nc1)=C2O [Example 172] are within 1.5-fold of each other in IC50: 2.2 µM for the first, 2.4 µM for the second.

C[C@]12CCCN1N(Cc1ccc(F)cc1F)C(=O)C(C(=O)Nc1ccc(C(F)(F)F)cc1-c1ccc(C(F)(F)F)nc1)=C2O [Example 173] and C[C@]12CCCN1N(Cc1cccc(F)c1Cl)C(=O)C(C(=O)Nc1ccc(C(F)(F)F)cc1-c1ccc(C(F)(F)F)nc1)=C2O [Example 201] are within 1.5-fold of each other in IC50: 1.9 µM for the first, 1.3 µM for the second.

Compared with C[C@]12CCCN1N(Cc1cccc(F)c1Cl)C(=O)C(C(=O)Nc1cc(F)c(Br)c(F)c1)=C2O [Example 174], Cc1cccc(CN2C(=O)C(C(=O)Nc3cc(F)c(Br)c(F)c3)=C(O)[C@@]3(C)CCCN23)c1F [Example 195] is 2.1-fold higher in IC50: 2.2 µM for the first, 4.6 µM for the second.

COc1cccc(CN2C(=O)C(C(=O)Nc3ccc(C(F)(F)F)cc3-c3ccc(C(F)(F)F)nc3)=C(O)[C@@]3(C)CCCN23)c1OC [Example 175] and COc1ccc(OC)c(CN2C(=O)C(C(=O)Nc3ccc(C(F)(F)F)cc3-c3ccc(C(F)(F)F)nc3)=C(O)[C@@]3(C)CCCN23)c1 [Example 176] are within 1.5-fold of each other in IC50: 3.4 µM for the first, 4 µM for the second.

First: C[C@]12CCCN1N(Cc1cccc(OC(F)F)c1)C(=O)C(C(=O)Nc1ccc(C(F)(F)F)cc1-c1cc(C(F)(F)F)ncn1)=C2O [Example 177]
Second: C[C@]12CCCN1N(Cc1cccc(OC(F)(F)F)c1)C(=O)C(C(=O)Nc1ccc(C(F)(F)F)cc1-c1cc(C(F)(F)F)ncn1)=C2O [Example 189]
The IC50 of the first is 2-fold higher: 11.1 µM for the first, 5.5 µM for the second.

C[C@]12CCCN1N(Cc1ccccc1C#N)C(=O)C(C(=O)Nc1ccc(C(F)(F)F)cc1-c1cc(C(F)(F)F)ncn1)=C2O [Example 178] and C[C@]12CCCN1N(Cc1ccccc1Cl)C(=O)C(C(=O)Nc1ccc(C(F)(F)F)cc1-c1cc(C(F)(F)F)ncn1)=C2O [Example 180] are within 1.5-fold of each other in IC50: 8.2 µM for the first, 5.7 µM for the second.

Going from C[C@]12CCCN1N(Cc1cccc(C#N)c1)C(=O)C(C(=O)Nc1ccc(C(F)(F)F)cc1-c1cc(C(F)(F)F)ncn1)=C2O [Example 179] to C[C@]12CCCN1N(Cc1cccc(Cl)c1)C(=O)C(C(=O)Nc1ccc(C(F)(F)F)cc1-c1cc(C(F)(F)F)ncn1)=C2O [Example 181], the IC50 falls from 18.9 µM to 4.8 µM (3.9-fold). The second is the more potent here.

C[C@]12CCCN1N(Cc1ccc(Cl)cc1)C(=O)C(C(=O)Nc1ccc(C(F)(F)F)cc1-c1cc(C(F)(F)F)ncn1)=C2O [Example 182] and Cc1ccc(CN2C(=O)C(C(=O)Nc3ccc(C(F)(F)F)cc3-c3cc(C(F)(F)F)ncn3)=C(O)[C@@]3(C)CCCN23)cc1 [Example 187] are within 1.5-fold of each other in IC50: 5.1 µM for the first, 6.7 µM for the second.

Going from COC(=O)c1cccc(CN2C(=O)C(C(=O)Nc3ccc(C(F)(F)F)cc3-c3cc(C(F)(F)F)ncn3)=C(O)[C@@]3(C)CCCN23)c1 [Example 183] to Cc1cccc(CN2C(=O)C(C(=O)Nc3ccc(C(F)(F)F)cc3-c3cc(C(F)(F)F)ncn3)=C(O)[C@@]3(C)CCCN23)c1 [Example 186], the IC50 falls from 9.1 µM to 5.5 µM (1.7-fold).

Cc1ccccc1CN1C(=O)C(C(=O)Nc2ccc(C(F)(F)F)cc2-c2cc(C(F)(F)F)ncn2)=C(O)[C@@]2(C)CCCN12 [Example 185] and C[C@]12CCCN1N(Cc1ccccc1F)C(=O)C(C(=O)Nc1ccc(C(F)(F)F)cc1-c1cc(C(F)(F)F)ncn1)=C2O [Example 207] are within 1.5-fold of each other in IC50: 4.9 µM for the first, 6.5 µM for the second.

C[C@]12CCCN1N(Cc1ccccc1)C(=O)C(C(=O)Nc1ccc(C(F)(F)F)cc1-c1cc(C(F)(F)F)ncn1)=C2O [Example 188] and C[C@]12CCCN1N(Cc1ccc(F)cc1)C(=O)C(C(=O)Nc1ccc(C(F)(F)F)cc1-c1cc(C(F)(F)F)ncn1)=C2O [Example 208] are within 1.5-fold of each other in IC50: 6.1 µM for the first, 6.6 µM for the second.

C[C@]12CCCN1N(Cc1cc(F)cc(F)c1)C(=O)C(C(=O)Nc1cc(F)c(Br)c(F)c1)=C2O [Example 190] and C[C@]12CCCN1N(Cc1cc(F)c(F)c(F)c1)C(=O)C(C(=O)Nc1cc(F)c(Br)c(F)c1)=C2O [Example 197] are within 1.5-fold of each other in IC50: 5.1 µM for the first, 7 µM for the second.

Going from C[C@]12CCCN1N(Cc1ccc(F)c(F)c1)C(=O)C(C(=O)Nc1cc(F)c(Br)c(F)c1)=C2O [Example 191] to C[C@]12CCCN1N(Cc1cc(F)ccc1F)C(=O)C(C(=O)Nc1cc(F)c(Br)c(F)c1)=C2O [Example 193], the IC50 falls from 14.5 µM to 6.4 µM (2.3-fold).

Going from C[C@]12CCCN1N(Cc1cc(F)c(F)cc1F)C(=O)C(C(=O)Nc1cc(F)c(Br)c(F)c1)=C2O [Example 194] to C[C@]12CCCN1N(Cc1cc(F)ccc1Br)C(=O)C(C(=O)Nc1cc(F)c(Br)c(F)c1)=C2O [Example 217], the IC50 falls from 19.3 µM to 4.7 µM (4.1-fold).

Going from C[C@]12CCCN1N(Cc1cccc(Cl)c1F)C(=O)C(C(=O)Nc1ccc(C(F)(F)F)cc1-c1ccc(C(F)(F)F)nc1)=C2O [Example 198] to C[C@]12CCCN1N(Cc1c(F)cccc1Cl)C(=O)C(C(=O)Nc1ccc(C(F)(F)F)cc1-c1ccc(C(F)(F)F)nc1)=C2O [Example 204], the IC50 falls from 2.4 µM to 1 µM (2.4-fold).

C[C@]12CCCN1N(Cc1ccc(F)cc1)C(=O)C(C(=O)Nc1ccc(C(F)(F)F)cc1-c1ccc(C(F)(F)F)nc1)=C2O [Example 199] and Cc1cccc(CN2C(=O)C(C(=O)Nc3ccc(C(F)(F)F)cc3-c3ccc(C(F)(F)F)nc3)=C(O)[C@@]3(C)CCCN23)c1F [Example 205] are within 1.5-fold of each other in IC50: 1.8 µM for the first, 1.6 µM for the second.

COc1cc(CN2C(=O)C(C(=O)Nc3ccc(C(F)(F)F)cc3-c3ccc(C(F)(F)F)nc3)=C(O)[C@@]3(C)CCCN23)cc(OC)c1 [Example 202] and C[C@]12CCCN1N(Cc1cc(F)cc(F)c1)C(=O)C(C(=O)Nc1ccc(C(F)(F)F)cc1-c1cc(C(F)(F)F)ncn1)=C2O [Example 213] are within 1.5-fold of each other in IC50: 6.1 µM for the first, 6.4 µM for the second.

Going from C[C@]12CCCN1N(Cc1cccc(Cl)c1F)C(=O)C(C(=O)Nc1ccc(C(F)(F)F)cc1-c1cc(C(F)(F)F)ncn1)=C2O [Example 209] to C[C@]12CCCN1N(Cc1c(F)cccc1Cl)C(=O)C(C(=O)Nc1ccc(C(F)(F)F)cc1-c1cc(C(F)(F)F)ncn1)=C2O [Example 210], the IC50 falls from 4.8 µM to 1.7 µM (2.8-fold). The second is the more potent here.

C[C@]12CCCN1N(Cc1cc(Cl)ccc1F)C(=O)C(C(=O)Nc1ccc(C(F)(F)F)cc1-c1cc(C(F)(F)F)ncn1)=C2O [Example 211] and C[C@]12CCCN1N(Cc1ccc(F)c(F)c1)C(=O)C(C(=O)Nc1ccc(C(F)(F)F)cc1-c1cc(C(F)(F)F)ncn1)=C2O [Example 214] are within 1.5-fold of each other in IC50: 5.7 µM for the first, 7 µM for the second.

Cc1cccc(CN2C(=O)C(C(=O)Nc3ccc(C(F)(F)F)cc3-c3cc(C(F)(F)F)ncn3)=C(O)[C@@]3(C)CCCN23)c1F [Example 215] and C[C@]12CCCN1N(Cc1ccccc1Br)C(=O)C(C(=O)Nc1cc(F)c(Br)c(F)c1)=C2O [Example 216] are within 1.5-fold of each other in IC50: 6.2 µM for the first, 8 µM for the second.

In the case of C[C@]12CCCN1N(Cc1ccccc1C#N)C(=O)C(C(=O)Nc1cc(F)c(Br)c(F)c1)=C2O [Example 218], the IC50 is reported as 7.2 µM.
